According to patent publication US10597388B2, “Pyridazinone herbicides” (FMC CORPORATION, priority 2014, dated 2020):
Read-outs that look alike come from different tables or passages of the source.

Assays:
Assay type in all cases: in vivo
[1] = system: crabgrass, large (large crabgrass, Digitaria sanguinalis); assay: Test A greenhouse herbicide test, pre- and postemergence; conditions: 240 h; for pest or weed control at 1000 g/ha: 1000 g ai/ha; for pest or weed control at 1000 g/ha / pest or weed control at 500 g/ha: 0 to 100 scale; for pest or weed control at 125 g/ha: 125 g ai/ha; for pest or weed control at 500 g/ha: 500 g ai/ha
Method in brief: (§1)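 Visual injury ratings, 0 (no effect) to 100 (complete control), versus untreated plants after roughly 10 d in a greenhouse. Compounds, formulated in a surfactant-containing non-phytotoxic solvent, were sprayed on loam–sand soil after sowing (pre) or on one- to two-leaf plants 2–10 cm tall (post).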

[2] = system: momingglory (Ipomoea spp.); assay: as above; conditions: 240 h; for pest or weed control at 1000 g/ha: 1000 g ai/ha; for pest or weed control at 1000 g/ha / pest or weed control at 500 g/ha: 0 to 100 scale; for pest or weed control at 125 g/ha: 125 g ai/ha; for pest or weed control at 500 g/ha: 500 g ai/ha
Method in brief: as §1

[3] = system: velvetleaf (Abutilon theophrasti); assay: as above; conditions: 240 h; for pest or weed control at 1000 g/ha: 1000 g ai/ha; for pest or weed control at 1000 g/ha / pest or weed control at 500 g/ha: 0 to 100 scale; for pest or weed control at 125 g/ha: 125 g ai/ha; for pest or weed control at 500 g/ha: 500 g ai/ha
Method in brief: as §1

[4] = system: ALOMY, blackgrass (Alopecurus myosuroides); assay: Test F mixtures with commercial herbicides, Post- or Pre-emergence; conditions: Post-emergence, scale 0-100
Method in brief: (§2)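 Visual injury scale 0 (no effect) to 100 (complete control), scored against untreated controls 20 d after pre- or post-emergence treatment of plants grown from seed in Sandy Loam. Test chemicals in non-phytotoxic solvent mixture, dosed in g a.i./ha. Expected additive values: Pa+Pb−(PaPb/100).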

[5] = system: AMARE, redroot pigweed (Amaranthus retroflexus); assay: as above
Method in brief: as §2

[6] = system: AMBEL, common ragweed (Ambrosia elatior); assay: as above
Method in brief: as §2

[7] = system: ECHCG, barnyardgrass (Echinochloa crus-galli); assay: as above
Method in brief: as §2

[8] = system: GALAP, galium (Galium aparine); assay: as above; conditions: Post-emergence, scale 0-100
Method in brief: as §2

[9] = system: KCHSC, kochia (Kochia scoparia); assay: as above
Method in brief: as §2

[10] = system: LOLMU, Italian Ryegrass (Lolium multiflorum); assay: as above
Method in brief: as §2

[11] = system: SETVI, giant foxtail (Setaria faberii); assay: as above
Method in brief: as §2

[12] = post-emergence, Postemergence, 0 is no effect, 100 is complete control, read-out: Crabgrass, Large plant response rating
[13] = pre-emergence, Preemergence, 0 no effect, 100 complete control, read-out: Plant response rating, Crabgrass, Large
[14] = post-emergence, Postemergence, 0 is no effect, 100 is complete control, read-out: Morningglory plant response rating
[15] = pre-emergence, Preemergence, 0 no effect, 100 complete control, read-out: Plant response rating, Morningglory
[16] = post-emergence, Postemergence, 0 is no effect, 100 is complete control, read-out: Velvetleaf plant response rating
[17] = pre-emergence, Preemergence, 0 no effect, 100 complete control, read-out: Plant response rating, Velvetleaf
[18] = Post-emergence, Rate 16 g a.i./ha, scale 0-100
[19] = Post-emergence, Rate 62 g a.i./ha, scale 0-100
[20] = Pre-emergence, Rate 16 g a.i./ha, applied alone, 20 d, scale 0 to 100
[21] = Pre-emergence, Rate 62 g a.i./ha, applied alone, 20 d, scale 0 to 100

How did the pest or weed control at 1000 g/ha [1, 12] turn out when Cc1ccc2sc(C)c(-c3c(O)c(C)nn(C)c3=O)c2c1 [Compound 1, 4-(2,5-dimethylbenzo[b]thien-3-yl)-5-hydroxy-2,6-dimethyl-3(2H)-pyridazinone] was run?
Its pest or weed control at 1000 g/ha is 90%.

What about the pest or weed control at 1000 g/ha [1, 13] of the same compound?
The pest or weed control at 1000 g/ha was 90%.

What about the pest or weed control at 1000 g/ha [2, 14] of the same compound?
Its pest or weed control at 1000 g/ha is 100%.

What about the pest or weed control at 1000 g/ha [2, 15] of the same compound?
The pest or weed control at 1000 g/ha was 90%.

And the pest or weed control at 1000 g/ha [3, 16]?
Its pest or weed control at 1000 g/ha is 100%.

What about the pest or weed control at 1000 g/ha [3, 17] of the same compound?
Its pest or weed control at 1000 g/ha is 100%.

What about the “ALOMY Obsd.” value ([4]; Rate 16 g a.i./ha) of the same compound?
The value was 0.0.

What about the “ALOMY Obsd.” value ([4]; Rate 62 g a.i./ha) of the same compound?
The value was 35.0.

What about the “AMARE Obsd.” value [5, 18] of the same compound?
Its value is 30.0.

And the “AMARE Obsd.” value [5, 19]?
Its value is 100.0.

What about the “AMARE Obsd.” value [5, 20] of the same compound?
The value was 20.

And the “AMARE Obsd.” value [5, 21]?
Its value is 90.

And the “AMBEL Obsd.” value [6, 18]?
The value was 95.0.

And the “AMBEL Obsd.” value [6, 19]?
Its value is 100.0.

And the “AMBEL Obsd.” value [6, 20]?
Its value is 65.

And the “AMBEL Obsd.” value [6, 21]?
The value was 90.

What about the “ECHCG Obsd.” value [7, 18] of the same compound?
Its value is 0.0.

And the “ECHCG Obsd.” value [7, 19]?
Its value is 0.0.

What about the “ECHCG Obsd.” value [7, 20] of the same compound?
Its value is 0.

And the “ECHCG Obsd.” value [7, 21]?
The value was 20.

What about the “GALAP Obsd.” value ([8]; Rate 16 g a.i./ha) of the same compound?
The value was 65.0.

What about the “GALAP Obsd.” value ([8]; Rate 62 g a.i./ha) of the same compound?
Its value is 100.0.

What about the “KCHSC Obsd.” value [9, 18] of the same compound?
The value was 60.0.

And the “KCHSC Obsd.” value [9, 19]?
The value was 100.0.

And the “KCHSC Obsd.” value [9, 20]?
Its value is 0.

And the “KCHSC Obsd.” value [9, 21]?
Its value is 25.

What about the “LOLMU Obsd.” value [10, 18] of the same compound?
Its value is 65.0.

And the “LOLMU Obsd.” value [10, 19]?
Its value is 100.0.

What about the “LOLMU Obsd.” value [10, 20] of the same compound?
Its value is 65.

What about the “LOLMU Obsd.” value [10, 21] of the same compound?
Its value is 100.

And the “SETVI Obsd.” value [11, 18]?
Its value is 0.0.

What about the “SETVI Obsd.” value [11, 19] of the same compound?
The value was 40.0.

And the “SETVI Obsd.” value [11, 20]?
Its value is 0.

And the “SETVI Obsd.” value [11, 21]?
Its value is 60.

What does the source list for Cc1nn(C)c(=O)c(-c2c(C)oc3c(C)cccc23)c1O [Compound 9, 4-(2,7-dimethyl-3-benzofuranyl)-5-hydroxy-2,6-dimethyl-3(2H)-pyridazinone]?
pest or weed control at 125 g/ha ([1]; post-emergence, Postemergence, visual rating after approx. 10 d, 0 to 100 scale (0 no effect, 100 complete control), read-out: Plant response rating, Crabgrass, Large): 10%; pest or weed control at 500 g/ha [1, 12]: 50%; pest or weed control at 125 g/ha ([1]; pre-emergence, Preemergence, 0 to 100 scale where 0 is no effect and 100 is complete control, read-out: Crabgrass, Large plant response rating): 20%; pest or weed control at 500 g/ha [1, 13]: 90%; pest or weed control at 125 g/ha ([2]; post-emergence, Postemergence, visual rating after approx. 10 d, 0 to 100 scale (0 no effect, 100 complete control), read-out: Plant response rating, Morningglory): 40%; pest or weed control at 500 g/ha [2, 14]: 80%; pest or weed control at 125 g/ha ([2]; pre-emergence, Preemergence, 0 to 100 scale where 0 is no effect and 100 is complete control, read-out: Morningglory plant response rating): 0%; pest or weed control at 500 g/ha [2, 15]: 0%; pest or weed control at 125 g/ha ([3]; post-emergence, Postemergence, visual rating after approx. 10 d, 0 to 100 scale (0 no effect, 100 complete control), read-out: Plant response rating, Velvetleaf): 0%; pest or weed control at 500 g/ha [3, 16]: 10%; pest or weed control at 125 g/ha ([3]; pre-emergence, Preemergence, 0 to 100 scale where 0 is no effect and 100 is complete control, read-out: Velvetleaf plant response rating): 0%; pest or weed control at 500 g/ha [3, 17]: 0%
